Assay results as given in patent publication US20040228868A1, “Apo-2L receptor agonist and CPT-11 synergism” (Genentech, Inc., priority 1999, published 2004).

System: COLO205 colon carcinoma cells
Assay: COLO205 colon carcinoma xenograft tumor growth in athymic nude mice (Example 1)
Type: in vivo, human
Conditions: Apo-2L 30 mg/kg/day days 0-4 and 7-11, CPT-11 80 mg/kg/day days 0, 4, 8; for animals in which tumor growth resumed several days after the treatment period: of 9 mice per group
Method: The colon carcinoma cell line COLO205 (available from NCI) were grown and maintained according to the supplier's methods. Briefly, COLO205 cells were cultured in high glucose DMEM/F12 (50:50) media containing 10% fetal bovine serum and 2.0 mM-L-Glutamine. […] Cell-paste containing recombinant human soluble Apo-2L was extracted with a buffer containing 0.1M Tris/0.2M NaCl/50 mM EDTA, pH 8.0. The extract was precipitated by 40% ammonium sulfate. […] Purity was determined by sodium-dodecyl sulfate (SDS)-polyacrylamide gel electrophoresis and silver-nitrate or coomassie-blue staining, by amino acid sequence analysis, and by size-exclusion on high performance liquid chromatography (HPLC). CPT-11 (Camptosar®) was obtained from Pharmacia & Upjohn.
Athymic nude mice (Jackson Laboratories) were injected subcutaneously with 5 million COLO205 colon carcinoma cells and the tumors allowed to grow to about 120 mm^3. Tumor-bearing mice were randomized into 4 groups at 9 mice per group and treated with either vehicle (20 mM Tris, 8% Trehalose, 0.01 Tween-20, pH 7.5), Apo-2L (30 mg/kg/day on days 0-4 and 7-11), or CPT-11 (80 mg/kg/day on days 0, 4, and 8), or a combination of Apo-2L (30 mg/kg/day on days 0-4 and 7-11) plus CPT-11 (80 mg/kg/day on days 0, 4, and 8). Tumor volumes were determined at the indicated days over 34 days.

Compound	animals in which tumor growth resumed several days after the treatment period	effect on tumor growth (tumor volume, FIG. 1) (s.c. COLO205 tumors about 120 mm^3, 9 mice per group, followed 34 days)
CCc1c2c(nc3ccc(OC(=O)N4CCC(N5CCCCC5)CC4)cc13)-c1cc3c(c(=O)n1C2)COC(=O)[C@]3(O)CC.Cl.O.O.O [CPT-11, (4S)-4,11-diethyl-4-hydroxy-9-[(4-piperidino-piperidino)carbonyloxyl]-1H-pyrano[3′,4′:6,7]indolizino[1,2-b]quinoline-3,14(4H,12H)dione hydrochloride trihydrate]	9 animals	–
Apo-2L: recombinant human soluble Apo-2L, extracellular portion amino acids 114-281, prepared in E. coli	9 animals	suppressed tumor growth during the treatment period
